Data taken from US20120015907A1, “Furopyridine compounds and uses thereof” (NOVARTIS AG, priority 2010, published 2012).

Target: T1, HCV polymerase (Hepatitis C virus genotype 1b, UniProt Q9WMX2)
T1 construct: (His)6 (C)
Test: biochemical
Conditions: NS5B polymerase IC50 μM, polymerase assay of Biological Example 1

Compound | IC50 [µM]
CNC(=O)c1c(-c2ccc(C)cc2)oc2nc(N(CCCCCP(C)(=O)O)S(C)(=O)=O)c(C3CC3)cc12 [Example 23.999991, 5-(N-(5-cyclopropyl-3-(methylcarbamoyl)-2-p-tolylfuro[2,3-b]pyridin-6-yl)methylsulfonamido)pentyl (methyl)phosphinic acid] | 0.004
CCOP(C)(=O)CCCCCN(c1nc2oc(-c3ccc(C)cc3)c(C(=O)NC)c2cc1I)S(C)(=O)=O (stereo not shown) [Example 23.9994, ethyl 5-(N-(5-iodo-3-(methylcarbamoyl)-2-p-tolylfuro[2,3-b]pyridin-6-yl)methylsulfonamido)pentyl (methyl)phosphinate] | 0.038

Same assay, conditions: polymerase assay of Biological Example 1; read-out: NS5B polymerase IC50

IC50 [µM] | Compound
0.005 | CNC(=O)c1c(-c2ccc(C)cc2)oc2nc(N(CCCC(CC#N)C(=O)OC)S(C)(=O)=O)c(C3CC3)cc12 (stereo not shown) [Example 29.9998, methyl 2-(cyanomethyl)-5-(N-(5-cyclopropyl-3-(metfiylcarbamoyl)-2-p-tolylfuro[2,3-b]pyridin-6-yl)methylsulfonamido) pentanoate]
0.191 | CCc1cc2c(C(=O)NC)c(-c3ccc(F)cc3)oc2nc1N(CCCOc1ccccc1C#N)S(C)(=O)=O [Example 21.5, 6-(N-(3-(2-cyanophenoxy)propyl)methylsulfonamido)-5-ethyl-2-(4-fluorophenyl)-N-methylfuro[2,3-b]pyridine-3-carboxamide]
0.451 | CNC(=O)c1c(-c2ccc(F)cc2)oc2nc(N(CCO)S(C)(=O)=O)c(I)cc12 [Example 18.1, 2-(4-fluorophenyl)-6-(N-(2-hydroxyethyl)methylsulfonamido)-5-iodo-N-methylfuro[2,3-b]pyridine-3-carboxamide]
0.002 | CNC(=O)c1c(-c2ccc(C)c(F)c2)oc2nc(N(CCCCC(=O)O)S(C)(=O)=O)c(C3CC3)cc12 [Example 29.999999, 5-(N-(5-cyclopropyl-2-(3-fluoro-4-methylphenyl)-3-(methylcarbamoyl)furo[2,3-b]pyridin-6-yl)methylsulfonamido) pentanoic acid]
0.352 | CCc1cc2c(C(=O)NC)c(-c3ccc(F)cc3)oc2nc1N(CCCOc1ccccc1OC)S(C)(=O)=O [Example 21.92, 5-ethyl-2-(4-fluorophenyl)-6-(N-(3-(2-methoxyphenoxy)propyl)methylsulfonamido)-N-methylfuro[2,3-b]pyridine-3-carboxamide]
0.051 | CNC(=O)c1c(-c2ccc(F)cc2)oc2nc(N(C)S(C)(=O)=O)c(CCCCC(=O)N3CCC[C@H]3C(N)=O)cc12 [Example 4.8, (S)-5-(5-(2-carbamoylpyrrolidin-1-yl)-5-oxopentyl)-2-(4-fluorophenyl)-N-methyl-6-(N-methylmethylsulfonamido)furo[2,3-b]pyridine-3-carboxamide]
0.058 | CNC(=O)c1c(-c2ccc(F)cc2)oc2nc(N(C)S(C)(=O)=O)c(C(C)C)cc12 [Example 6.2, 2-(4-fluorophenyl)-5-isopropyl-N-methyl-6-(N-methylmethylsulfonamido)furo[2,3-b]pyridine-3-carboxamide]
0.131 | CCc1cc2c(C(=O)NC)c(-c3ccc(F)cc3)oc2nc1N(CCCC(=O)N(C)C)S(C)(=O)=O [Example 22.96, 6-(N-(4-(dimethylamino)-4-oxobutyl)methylsulfonamido)-5-ethyl-2-(4-fluorophenyl)-N-methylfuro[2,3-b]pyridine-3-carboxamide]
0.668 | CNC(=O)c1c(-c2ccc(C)cc2)oc2nc(N(CCC[C@@H](C)C(=O)N[C@@H](CO)Cc3ccccc3)S(C)(=O)=O)c(C3CC3)cc12 [Example 47.1]
0.037 | CCc1cc2c(C(=O)NC)c(-c3ccc(F)cc3)oc2nc1N(CCCS(=O)(=O)N1CCOCC1)S(C)(=O)=O [Example 21.98, 5-ethyl-2-(4-fluorophenyl)-N-methyl-6-(N-(3-(morpholinosulfonyl)propyl)methylsulfonamido)furo[2,3-b]pyridine-3-carboxamide]
0.007 | CNC(=O)c1c(-c2ccc(C)cc2)oc2nc(N(CCCC3(C(=O)O)CCN(C(=O)C(C)(C)C)CC3)S(C)(=O)=O)c(C3CC3)cc12 [Example 29.999992, 4-(3-(N-(5-cyclopropyl-3-(methylcarbamoyl)-2-p-tolylfuro[2,3-b]pyridin-6-yl)methylsulfonamido)propyl)-1-pivaloylpiperidine-4-carboxylic acid]
0.002 | CCc1ccc(-c2oc3nc(N(CCCCCC(=O)O)S(C)(=O)=O)c(C4CC4)cc3c2C(=O)NC)cc1 [Example 29.9, 6-(N-(5-cyclopropyl-2-(4-ethylphenyl)-3-(methylcarbamoyl)furo[2,3-b]pyridin-6-yl)methylsulfonamido) hexanoic acid]
0.076 | CNC(=O)c1c(-c2ccc(F)cc2)oc2nc(N(CCCC(=O)OC)S(C)(=O)=O)c(I)cc12 [Example 18.7, methyl 4-(N-(2-(4-fluorophenyl)-5-iodo-3-(methylcarbamoyl)furo[2,3-b]pyridin-6-yl)methylsulfonamido)butanoate]
0.26 | CNC(=O)c1c(-c2ccc(F)cc2)oc2nc(N(CCN3CCOCC3)S(C)(=O)=O)c(I)cc12 [Example 18.4, 2-(4-fluorophenyl)-5-iodo-N-methyl-6-(N-(2-morpholinoethyl)methylsulfonamido)furo[2,3-b]pyridine-3-carboxamide]
0.094 | CCc1cc2c(C(=O)NC)c(-c3ccc(F)cc3)oc2nc1N(CCc1ccncc1)S(C)(=O)=O [Example 21.996, 5-ethyl-2-(4-fluorophenyl)-N-methyl-6-(N-(2-(pyridin-4-yl)ethyl)methylsulfonamido)furo[2,3-b]pyridine-3-carboxamide]
0.161 | CNC(=O)c1c(-c2ccc(F)cc2)oc2nc3c(cc12)CCCCN3S(C)(=O)=O [Example 39, 2-(4-Fluoro-phenyl)-9-methanesulfonyl-6,7,8,9-tetrahydro-5H-1-oxa-9,10-diaza-cyclohepta[f]indene-3-carboxylic acid methylamide]
0.163 | CNC(=O)c1c(-c2ccc(F)cc2)oc2nc(N(C)S(C)(=O)=O)c(I)cc12 [Example 2, 2-(4-Fluoro-phenyl)-5-iodo-6-(methanesulfonyl-methyl-amino)-furo[2,3-b]pyridine-3-carboxylic acid methylamide]
0.012 | CNC(=O)c1c(-c2ccc(F)cc2)oc2nc(N(CCCC(C)(C)C(=O)O)S(C)(=O)=O)c(C3CC3)cc12 [Example 27.1, 5-(N-(5-cyclopropyl-2-(4-fluorophenyl)-3-(methylcarbamoyl)furo[2,3-6]pyridin-6-yl)methylsulfonamido)-2,2-dimethylpentanoic acid]
0.004 | CNC(=O)c1c(-c2ccc(C)cc2)oc2nc(N(CCCBr)S(C)(=O)=O)c(C3CC3)cc12 [Example 29.999, 6-(N-(3-bromopropyl)methylsulfonamido)-5-cyclopropyl-N-methyl-2-p-tolylfuro[2,3-b]pyridine-3-carboxamide]
0.132 | C=C(C)c1cc2c(C(=O)NC)c(-c3ccc(F)cc3)oc2nc1N(C)S(C)(=O)=O [Example 2.4, 2-(4-fluorophenyl)-N-methyl-6-(N-methylmethylsulfonamido)-5-(prop-1-en-2-yl)furo[2,3-b]pyridine-3-carboxamide]
0.048 | CNC(=O)c1c(-c2ccc(C)cc2)oc2nc(N(CCCCC(=O)O)S(C)(=O)=O)c(CCO)cc12 [Example 29.999997, 5-(N-(5-(2-hydroxyethyl)-3-(methylcarbamoyl)-2-p-tolylfuro[2,3-b]pyridin-6-yl)methylsulfonamido) pentanoic acid]
0.002 | CNC(=O)c1c(-c2ccc(C)cc2)oc2nc(N(CCCC3(C(=O)O)CCC3)S(C)(=O)=O)c(C3CC3)cc12 [Example 29.1, 1-{3-[(5-Cyclopropyl-3-methylcarbamoyl-2-p-tolyl-furo[2,3-b]pyridin-6-yl)-methanesulfonyl-amino]-propyl}-cyclobutanecarboxylic acid]
0.216 | CNC(=O)c1c(-c2ccc(F)cc2)oc2nc(N(C)S(C)(=O)=O)c(CCCC(C)O)cc12 (stereo not shown) [Example 4.93, 2-(4-fluorophenyl)-5-(4-hydroxypentyl)-N-methyl-6-(N-methylmethylsulfonamido)furo[2,3-b]pyridine-3-carboxamide]
0.002 | CCc1ccc(-c2oc3nc(N(CCCC(C)(COC)C(=O)O)S(C)(=O)=O)c(C4CC4)cc3c2C(=O)NC)cc1 (stereo not shown) [Example 43, 5-(N-(5-Cyclopropyl-2-(4-ethylphenyl)-3-(methylcarbamoyl)furo[2,3-b]pyridin-6-yl)methylsulfonamido)-2-(methoxymethyl)-2-methylpentanoic acid]
0.001 | CNC(=O)c1c(-c2ccc(C)cc2)oc2nc(N(CCCCC(C)(C)C(=O)O)S(C)(=O)=O)c(C3CC3)cc12 [Example 29.2, 6-(N-(5-cyclopropyl-3-(methylcarbamoyl)-2-p-tolylfuro[2,3-b]pyridin-6-yl)methylsulfonamido)-2,2-dimethylhexanoic acid]
0.009 | CNC(=O)c1c(-c2ccc(C)cc2)oc2nc(N(CCCCCO)S(C)(=O)=O)c(I)cc12 [Example 23.99991, 6-(N-(5-hydroxypentyl)methylsulfonamido)-5-iodo-N-methyl-2-p-tolylfuro[2,3-b]pyridine-3-carboxamide]
0.023 | CNC(=O)c1c(-c2ccc(Oc3ccccc3F)cc2)oc2nc(N(CCCCC(=O)O)S(C)(=O)=O)c(C3CC3)cc12 [Example 27.3, 5-(N-(5-cyclopropyl-2-(4-(2-fluorophenoxy)phenyl)-3-(methylcarbamoyl)furo[2,3-b]pyridin-6-yl)methylsulfonamido) pentanoic acid]
0.039 | CNC(=O)c1c(-c2ccc(F)cc2)oc2nc(N(CCCC(C)O)S(C)(=O)=O)c(I)cc12 (stereo not shown) [Example 18.998, 2-(4-fluorophenyl)-6-(N-(4-hydroxypentyl)methylsulfonamido)-5-iodo-N-methylfuro[2,3-b]pyridine-3-carboxamide]
0.128 | C=CCc1cc2c(C(=O)NC)c(-c3ccc(F)cc3)oc2nc1N(C)S(C)(=O)=O [Example 4.2, 5-allyl-2-(4-fluorophenyl)-N-methyl-6-(N-methylmethylsulfonamido)furo[2,3-b]pyridine-3-carboxamide]
